Measurements reported in article PMC11942890, “Identification of a Novel NPC1L1 Inhibitor from Danshen and Its Role in Nonalcoholic Fatty Liver Disease” (International Journal of Molecular Sciences, 2025).

Experiments:
[1] = target: T1, Niemann-Pick C1-like 1 (NPC1L1) (Homo sapiens, UniProt Q9UHC9); test: NBD-cholesterol uptake inhibition in hL1-Caco2 cells stably expressing human NPC1L1; assay type: cell-based
T1 construct: hNPC1L1 CDS (NM_001101648.2) with 3 × Flag tag at the 3′ end, stably expressed in Caco2 cells (hL1-Caco2)
T1 sequence (Q9UHC9 other isoform, or with tags, fused parts or gaps): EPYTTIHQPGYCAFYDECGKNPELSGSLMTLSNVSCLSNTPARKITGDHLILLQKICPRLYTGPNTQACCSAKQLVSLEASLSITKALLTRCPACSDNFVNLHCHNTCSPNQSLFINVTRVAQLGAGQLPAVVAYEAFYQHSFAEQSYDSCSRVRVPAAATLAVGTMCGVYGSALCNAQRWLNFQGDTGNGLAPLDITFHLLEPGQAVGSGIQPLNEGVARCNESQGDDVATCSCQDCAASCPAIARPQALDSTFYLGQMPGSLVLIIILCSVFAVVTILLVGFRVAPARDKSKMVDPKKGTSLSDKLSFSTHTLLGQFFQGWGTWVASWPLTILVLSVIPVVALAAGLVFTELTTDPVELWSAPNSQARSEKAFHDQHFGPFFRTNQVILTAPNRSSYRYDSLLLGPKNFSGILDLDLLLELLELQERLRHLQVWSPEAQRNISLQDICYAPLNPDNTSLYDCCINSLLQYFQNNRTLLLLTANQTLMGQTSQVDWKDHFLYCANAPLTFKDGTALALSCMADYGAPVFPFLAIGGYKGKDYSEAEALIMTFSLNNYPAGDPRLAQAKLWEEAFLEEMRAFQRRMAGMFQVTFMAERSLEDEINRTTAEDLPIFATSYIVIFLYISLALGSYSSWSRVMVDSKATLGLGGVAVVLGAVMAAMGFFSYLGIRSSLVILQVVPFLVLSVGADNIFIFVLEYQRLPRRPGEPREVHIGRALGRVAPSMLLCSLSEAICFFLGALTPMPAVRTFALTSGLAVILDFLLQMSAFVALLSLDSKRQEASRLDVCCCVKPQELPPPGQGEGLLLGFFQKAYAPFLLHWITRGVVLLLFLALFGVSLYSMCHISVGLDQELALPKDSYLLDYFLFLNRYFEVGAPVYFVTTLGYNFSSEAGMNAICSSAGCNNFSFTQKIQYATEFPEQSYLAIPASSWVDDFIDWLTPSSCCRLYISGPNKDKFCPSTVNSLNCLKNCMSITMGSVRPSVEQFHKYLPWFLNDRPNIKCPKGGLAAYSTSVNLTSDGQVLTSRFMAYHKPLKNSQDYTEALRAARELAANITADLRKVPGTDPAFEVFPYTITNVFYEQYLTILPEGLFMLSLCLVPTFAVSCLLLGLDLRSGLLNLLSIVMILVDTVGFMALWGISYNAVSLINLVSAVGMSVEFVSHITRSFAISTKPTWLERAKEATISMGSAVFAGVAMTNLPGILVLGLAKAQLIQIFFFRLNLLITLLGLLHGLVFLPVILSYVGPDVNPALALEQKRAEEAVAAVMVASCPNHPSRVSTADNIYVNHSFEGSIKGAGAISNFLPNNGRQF

[2] = target: T1, Niemann-Pick C1-like 1 (NPC1L1); test: reference inhibitor; NPC1L1 inhibition in hL1-Caco2 cells (NBD-cholesterol uptake); assay type: cell-based

| IC50 [2] [µM] | SMILES | IC50 [1] [µM] |
| --- | --- | --- |
|  | C[C@H]1COC2=C1C(=O)C(=O)c1c2ccc2c1CCCC2(C)C [F1-1, cryptotanshinone] | 12.3 |
| 0.35 | O=C1[C@H](CC[C@H](O)c2ccc(F)cc2)[C@@H](c2ccc(O)cc2)N1c1ccc(F)cc1 [ezetimibe] |  |
